In patent US10168342B2, “Lipid probes and uses thereof” (THE SCRIPPS RESEARCH INSTITUTE, priority 2015, dated 2019):
Read-outs that look alike come from different tables or passages of the source.

Key:
[1] = target: T1, AEA-DA lipid probe targets in Neuro2a cells (Mus musculus, UniProt P17439)
T1 sequence (P17439 20-515): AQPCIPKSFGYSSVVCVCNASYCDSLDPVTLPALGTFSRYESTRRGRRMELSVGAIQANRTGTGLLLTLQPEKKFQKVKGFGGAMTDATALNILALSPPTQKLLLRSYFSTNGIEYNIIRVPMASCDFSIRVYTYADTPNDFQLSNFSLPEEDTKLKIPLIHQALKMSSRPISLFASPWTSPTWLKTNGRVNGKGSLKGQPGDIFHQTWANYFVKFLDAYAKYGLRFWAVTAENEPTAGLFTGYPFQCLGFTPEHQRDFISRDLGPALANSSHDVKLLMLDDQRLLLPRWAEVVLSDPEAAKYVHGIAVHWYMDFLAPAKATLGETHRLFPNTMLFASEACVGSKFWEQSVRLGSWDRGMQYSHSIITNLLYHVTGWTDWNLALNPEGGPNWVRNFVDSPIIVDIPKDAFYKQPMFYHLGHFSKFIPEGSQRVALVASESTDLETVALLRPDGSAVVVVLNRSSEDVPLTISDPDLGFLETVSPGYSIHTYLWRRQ

[2] = target: T2, AEA-DA lipid probe targets in Neuro2a cells (Mus musculus, UniProt Q91WS0)
T2 sequence (Q91WS0 1-108): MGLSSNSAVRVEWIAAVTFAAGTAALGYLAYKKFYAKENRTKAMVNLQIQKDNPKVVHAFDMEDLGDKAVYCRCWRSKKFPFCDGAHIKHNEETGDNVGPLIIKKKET

[3] = target: T3, AEA-DA lipid probe targets in Neuro2a cells (Mus musculus, UniProt Q91ZV0)
T3 sequence (Q91ZV0 23-1396): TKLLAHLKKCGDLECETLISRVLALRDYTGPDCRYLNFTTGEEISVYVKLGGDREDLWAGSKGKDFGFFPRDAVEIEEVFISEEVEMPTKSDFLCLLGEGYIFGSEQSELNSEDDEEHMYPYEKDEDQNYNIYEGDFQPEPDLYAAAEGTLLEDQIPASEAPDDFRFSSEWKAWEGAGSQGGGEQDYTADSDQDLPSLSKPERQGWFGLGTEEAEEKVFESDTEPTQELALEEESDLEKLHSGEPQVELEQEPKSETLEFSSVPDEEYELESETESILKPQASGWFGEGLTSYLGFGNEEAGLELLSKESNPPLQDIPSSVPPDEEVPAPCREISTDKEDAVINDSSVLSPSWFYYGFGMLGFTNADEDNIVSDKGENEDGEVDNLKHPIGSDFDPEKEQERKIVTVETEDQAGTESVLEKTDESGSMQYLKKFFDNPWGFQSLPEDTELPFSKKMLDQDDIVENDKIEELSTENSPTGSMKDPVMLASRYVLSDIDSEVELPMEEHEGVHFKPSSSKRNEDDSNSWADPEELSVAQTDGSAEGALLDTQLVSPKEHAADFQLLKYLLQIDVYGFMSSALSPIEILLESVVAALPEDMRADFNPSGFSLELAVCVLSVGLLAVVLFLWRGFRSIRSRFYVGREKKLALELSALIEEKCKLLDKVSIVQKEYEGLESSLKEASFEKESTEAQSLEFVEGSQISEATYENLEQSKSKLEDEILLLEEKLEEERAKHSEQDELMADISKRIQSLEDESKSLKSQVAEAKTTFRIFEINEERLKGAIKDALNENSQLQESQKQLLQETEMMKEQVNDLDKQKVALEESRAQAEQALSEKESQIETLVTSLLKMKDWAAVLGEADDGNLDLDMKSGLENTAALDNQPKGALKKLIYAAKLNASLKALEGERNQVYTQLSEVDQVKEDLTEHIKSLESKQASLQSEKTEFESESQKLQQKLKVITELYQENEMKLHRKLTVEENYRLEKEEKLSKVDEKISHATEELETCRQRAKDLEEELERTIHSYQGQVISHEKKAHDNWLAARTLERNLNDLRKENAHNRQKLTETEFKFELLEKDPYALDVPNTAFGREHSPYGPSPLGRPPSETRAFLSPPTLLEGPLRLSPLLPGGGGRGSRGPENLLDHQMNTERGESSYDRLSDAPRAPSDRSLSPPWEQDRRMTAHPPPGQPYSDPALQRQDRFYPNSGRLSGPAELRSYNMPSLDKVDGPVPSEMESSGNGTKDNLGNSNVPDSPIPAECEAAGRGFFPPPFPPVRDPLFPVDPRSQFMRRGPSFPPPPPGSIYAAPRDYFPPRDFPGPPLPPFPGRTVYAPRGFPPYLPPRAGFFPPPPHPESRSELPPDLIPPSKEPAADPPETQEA

[4] = target: T4, AEA-DA lipid probe targets in Neuro2a cells (Mus musculus, UniProt Q920A5)
T4 sequence (Q920A5 29-452): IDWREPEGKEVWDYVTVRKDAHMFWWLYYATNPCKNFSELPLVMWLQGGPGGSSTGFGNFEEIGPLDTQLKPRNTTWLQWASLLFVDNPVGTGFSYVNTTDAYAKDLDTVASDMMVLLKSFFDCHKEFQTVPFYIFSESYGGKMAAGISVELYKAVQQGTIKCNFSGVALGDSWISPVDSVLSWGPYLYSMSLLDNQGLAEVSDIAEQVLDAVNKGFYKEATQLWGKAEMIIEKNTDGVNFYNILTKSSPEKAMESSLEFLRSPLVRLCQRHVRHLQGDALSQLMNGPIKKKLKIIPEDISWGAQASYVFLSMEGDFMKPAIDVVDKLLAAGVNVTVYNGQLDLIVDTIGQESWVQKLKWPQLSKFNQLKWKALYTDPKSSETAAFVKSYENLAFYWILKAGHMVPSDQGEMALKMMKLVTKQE

[5] = target: T5, AEA-DA lipid probe targets in Neuro2a cells (Mus musculus, UniProt Q9Z2Z6)
T5 sequence (Q9Z2Z6 1-301): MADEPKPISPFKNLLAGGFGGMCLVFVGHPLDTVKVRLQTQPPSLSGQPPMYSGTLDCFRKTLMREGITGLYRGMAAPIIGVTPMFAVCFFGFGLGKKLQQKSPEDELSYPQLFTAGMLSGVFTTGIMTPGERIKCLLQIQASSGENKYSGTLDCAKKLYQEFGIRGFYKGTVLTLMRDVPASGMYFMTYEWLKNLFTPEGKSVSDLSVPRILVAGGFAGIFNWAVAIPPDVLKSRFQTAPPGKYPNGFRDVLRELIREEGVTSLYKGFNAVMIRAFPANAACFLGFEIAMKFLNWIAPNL

CCCCC/C=C\C/C=C\C/C=C\C/C=C\CCCC(=O)NCCO [AEA, anandamide, reference compound]
SILAC ratio Gba ([1]; competitor 200 μM): 1.5
SILAC ratio Cisd1 ([2]; competitor 200 μM): 1.6
SILAC ratio, Ctage5 ([3]; competitor 200 μM): 2.3
SILAC ratio Scpep1 ([4]; competitor 200 μM): 1.0
SILAC ratio Slc25a20 ([5]; competitor 200 μM): 1.6

O=C(/C=C/c1cccnc1)NCCCCC1CCN(C(=O)c2ccccc2)CC1 [FK-866, reference compound]
SILAC ratio Gba ([1]; competitor 25 μM): 1.0
SILAC ratio Cisd1 ([2]; competitor 25 μM): 1.1
SILAC ratio, Ctage5 ([3]; competitor 25 μM): 1.1
SILAC ratio Scpep1 ([4]; competitor 25 μM): 1.2
SILAC ratio Slc25a20 ([5]; competitor 25 μM): 1.4

CN1CCN(C(=O)c2c(-c3ccccc3)c3cc([N+](=O)[O-])ccc3n2C)CC1 [KML110, (1-Methyl-5-nitro-3-phenyl-1H-indol-2-yl)(4-methylpiperazin-1-yl)methanone]
SILAC ratio Gba ([1]; competitor 25 μM): 2.4
SILAC ratio Cisd1 ([2]; competitor 25 μM): 1.6
SILAC ratio, Ctage5 ([3]; competitor 25 μM): 1.4
SILAC ratio Scpep1 ([4]; competitor 25 μM): 1.6
SILAC ratio Slc25a20 ([5]; competitor 25 μM): 1.5

CN1CCN(C(=O)c2[nH]c3ccc([N+](=O)[O-])cc3c2-c2ccccc2)CC1 [MJN228, (4-Methylpiperazin-1-yl)(5-nitro-3-phenyl-1H-indol-2-yl)methanone]
SILAC ratio Gba ([1]; competitor 10 μM): 2.2
SILAC ratio Cisd1 ([2]; competitor 10 μM): 1.3
SILAC ratio Cisd1 ([2]; competitor 25 μM): 1.5
SILAC ratio Cisd1 ([2]; competitor 50 μM): 1.4
SILAC ratio Cisd1 ([2]; competitor 100 μM): 2.4
SILAC ratio, Ctage5 ([3]; competitor 10 μM): 1.1
SILAC ratio, Ctage5 ([3]; competitor 25 μM): 1.3
SILAC ratio, Ctage5 ([3]; competitor 50 μM): 1.5
SILAC ratio, Ctage5 ([3]; competitor 100 μM): 1.7
SILAC ratio Scpep1 ([4]; competitor 10 μM): 1.2
SILAC ratio Scpep1 ([4]; competitor 25 μM): 1.4
SILAC ratio Scpep1 ([4]; competitor 50 μM): 1.5
SILAC ratio Scpep1 ([4]; competitor 100 μM): 1.9
SILAC ratio Slc25a20 ([5]; competitor 10 μM): 1.4
SILAC ratio Slc25a20 ([5]; competitor 25 μM): 1.4
SILAC ratio Slc25a20 ([5]; competitor 50 μM): 2.4
SILAC ratio Slc25a20 ([5]; competitor 100 μM): 3.4

C=CCN(C)CCCCCCOc1ccc(C(=O)c2ccc(Br)cc2)c(F)c1 [Ro 48-8071, reference compound]
SILAC ratio Gba ([1]; competitor 25 μM): 0.7
SILAC ratio Cisd1 ([2]; competitor 25 μM): 1.1
SILAC ratio, Ctage5 ([3]; competitor 25 μM): 1.0
SILAC ratio Scpep1 ([4]; competitor 25 μM): 0.4
SILAC ratio Slc25a20 ([5]; competitor 25 μM): 1.2
